Where a name gives a salt, the structure may show the parent alone.
Each compound was assayed on HT29. Settings: 72 h, relative to DMSO, 10 µM, Relative cell viability (%).
Outline: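 Cells were exposed to drug for 72 h, then to WST-1 for 2 h at 37 °C, and absorbance was read at 450 nm as viability against DMSO treatment. In the screen, each compound was applied at 10 µM.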

| SMILES | Relative cell viability (%) |
| --- | --- |
| CC/C(=C(\c1ccccc1)c1ccc(OCCN(C)C)cc1)c1ccccc1 [Tamoxifen Citrate] | 47.42% |
| CC(C)NCC(O)COc1ccc(CCOCC2CC2)cc1 (centres unmarked) [Betaxolol hydrochloride (Betoptic)] | 100.8% |
| COc1ccc(C[C@@H]2c3cc(OC)c(OC)cc3CC[N@+]2(C)CCC(=O)OCCCCCOC(=O)CC[N@@+]2(C)CCc3cc(OC)c(OC)cc3[C@H]2Cc2ccc(OC)c(OC)c2)cc1OC [Cisatracurium Besylate] | 127.3% |

Same assay, conditions: 72 h, relative to DMSO; 10 µM

| SMILES | Relative cell viability (%) |
| --- | --- |
| C[C@@H](O[C@H]1OCCN(Cc2nc(O)n(P(=O)(O)O)n2)[C@H]1c1ccc(F)cc1)c1cc(C(F)(F)F)cc(C(F)(F)F)c1 [Fosaprepitant dimeglumine salt] | 111.6% |
| O=C1Nc2ccc(Cl)cc2[C@@](C#CC2CC2)(C(F)(F)F)O1 [Efavirenz] | 72.65% |
| CC[C@H](Nc1ncnc2[nH]cnc12)c1nc2cccc(F)c2c(=O)n1-c1ccccc1 [CAL-101 (Idelalisib, GS-1101)] | 112.6% |
| CCOc1cc(N)c(Cl)cc1C(=O)NCC1CN(Cc2ccc(F)cc2)CCO1 (centres unmarked) [Mosapride Citrate] | 38.47% |
| Cn1ncc(Cl)c1-c1cc(C(=O)N[C@H](CN)Cc2ccc(F)c(F)c2)oc1Cl [Uprosertib (GSK2141795)] | 4.701% |
| COc1c2occc2cc2ccc(=O)oc12 [Methoxsalen] | 170.4% |
| CCN1CCN(C(=O)N[C@@H](C(=O)N[C@@H]2C(=O)N3[C@@H]2SC(C)(C)[C@@H]3C(=O)O)c2ccccc2)C(=O)C1=O [Piperacillin Sodium] | 73.94% |
| CC(=O)OCC(=O)[C@H]1CC[C@H]2[C@@H]3CCC4=CC(=O)CC[C@]4(C)[C@H]3CC[C@]12C [Deoxycorticosterone acetate] | 81.21% |
| CC[C@H](NC(=O)[C@H](C)NC)C(=O)N1C[C@@H](O)C[C@H]1Cc1c(-c2[nH]c3cc(F)ccc3c2C[C@@H]2C[C@H](O)CN2C(=O)[C@H](CC)NC(=O)[C@H](C)NC)[nH]c2cc(F)ccc12 [Birinapant] | 132.9% |
| CCCC1O[C@@H]2C[C@H]3[C@@H]4CCC5=CC(=O)C=C[C@]5(C)[C@H]4[C@@H](O)C[C@]3(C)[C@]2(C(=O)CO)O1 (some centres unmarked) [Budesonide] | 83.64% |
| CN1CCc2nc(C(=O)N[C@@H]3C[C@@H](C(=O)N(C)C)CC[C@@H]3NC(=O)C(=O)Nc3ccc(Cl)cn3)sc2C1 [Edoxaban] | 95.73% |
| CCOC(=O)[C@H](CCc1ccccc1)N[C@@H](C)C(=O)N1CCC[C@H]1C(=O)O [Enalapril Maleate] | 98.82% |
| O=C(O)c1nn(Cc2ccc(Cl)cc2Cl)c2ccccc12 [Lonidamine] | 47.57% |
| CCOC(=O)C1=C[C@@H](OC(CC)CC)[C@H](NC(C)=O)[C@@H](N)C1 [Oseltamivir Phosphate] | 60.68% |
| CCCCCCCCCCCC1=C(O)C(=O)C=C(O)C1=O [Embelin] | 140.6% |
| C[C@@H]1COC(Nc2ccc3ncnc(Nc4ccc(OCc5nccs5)c(Cl)c4)c3c2)=N1 [Varlitinib] | 111.6% |
| NC(CO)(CO)CO [Trometamol] | 73.94% |
| CCOC(=O)C1=C(C)NC(C)=C(C(=O)OC)C1c1cccc(Cl)c1Cl (centres unmarked) [Felodipine] | 60.17% |
| CC(C)(C)c1nc(-c2cccc(NS(=O)(=O)c3c(F)cccc3F)c2F)c(-c2ccnc(N)n2)s1 [Dabrafenib (GSK2118436)] | 37.38% |
| CN(C)[C@@H]1C(O)=C(C(N)=O)C(=O)[C@@]2(O)C(O)=C3C(=O)c4c(O)ccc(Cl)c4[C@@H](O)[C@H]3C[C@@H]12 [Demeclocycline HCl] | 74.85% |
| NC(=O)c1cnccn1 [Pyrazinamide] | 83.05% |
| CC(=O)OCC(=O)NCCCOc1cccc(CN2CCCCC2)c1 [Roxatidine Acetate HCl] | 111% |

| SMILES | Relative cell viability (%) |
| --- | --- |
| CNCC[C@H](Oc1cccc2ccccc12)c1cccs1 [Duloxetine HCl] | 99.61% |
| COC(=O)C1=C(C)NC(C)=C(C(=O)OCC(C)C)C1c1ccccc1[N+](=O)[O-] (centres unmarked) [Nisoldipine] | 56.36% |
| NS(=O)(=O)NCCNc1nonc1C(=NO)Nc1ccc(F)c(Br)c1 [Epacadostat (INCB024360)] | 100.9% |
| CCOc1cc2ncc(C#N)c(Nc3ccc(OCc4ccccn4)c(Cl)c3)c2cc1NC(=O)/C=C/CN(C)C [Neratinib (HKI-272)] | 97.84% |
| C/C(=C\c1csc(C)n1)[C@@H]1C[C@@H]2O[C@]2(C)CCC[C@H](C)[C@H](O)[C@@H](C)C(=O)C(C)(C)[C@@H](O)CC(=O)O1 [Epothilone B (EPO906, Patupilone)] | 7.321% |
| COC(=O)Nc1nc2cc(C(=O)c3ccc(F)cc3)ccc2[nH]1 [Flubendazole] | 16.95% |
| CCOC(=O)[C@H](CCc1ccccc1)N[C@@H](C)C(=O)N1Cc2cc(OC)c(OC)cc2C[C@H]1C(=O)O [Moexipril HCl] | 110.2% |
| CO[C@H]1O[C@@H]2O[C@@]3(C)CC[C@H]4[C@H](C)CC[C@@H]([C@H]1C)[C@@]24OO3 [Artemether] | 126.1% |
| CCOC(=O)c1cncn1[C@H](C)c1ccccc1 [Etomidate] | 60.28% |
| O=c1c(-c2ccc(O)cc2)coc2cc(O)cc(O)c12 [Genistein] | 102.3% |
| O=c1[nH]c(=O)n(C2CCCO2)cc1F (centres unmarked) [FT-207 (NSC 148958)] | 74.3% |
| Clc1ccc(C(Cn2ccnc2)OCc2ccsc2Cl)c(Cl)c1 (centres unmarked) [Tioconazole] | 135.7% |
| CCOc1nc2cccc(C(=O)OC(C)OC(=O)OC3CCCCC3)c2n1Cc1ccc(-c2ccccc2-c2nnn[nH]2)cc1 (centres unmarked) [Candesartan Cilexetil] | 195.6% |
| CCn1cc(C(=O)O)c(=O)c2ccc(C)nc21 [Nalidixic acid] | 106.7% |
| CCOC(=O)C1=C[C@]2(CC)CCCN3CCc4c(n1c1ccccc41)[C@@H]32 [Vinpocetine] | 107.3% |
| CCCCC(=O)N(Cc1ccc(-c2ccccc2-c2nnn[nH]2)cc1)[C@H](C(=O)O)C(C)C [Valsartan] | 83.05% |
| CS(=O)(=O)CCNCc1ccc(-c2ccc3ncnc(Nc4ccc(OCc5cccc(F)c5)c(Cl)c4)c3c2)o1 [Lapatinib] | 94.3% |
| NC(=O)N1CCC(CC(=O)N2CCC([C@H]3c4ncc(Br)cc4CCc4cc(Cl)cc(Br)c43)CC2)CC1 [Lonafarnib] | 95.63% |
| Cc1oncc1C(=O)Nc1ccc(C(F)(F)F)cc1 [Leflunomide] | 55.61% |
| O=C(O)CCCN1CCC(O[C@@H](c2ccc(Cl)cc2)c2ccccn2)CC1 [Bepotastine Besilate] | 89.81% |
| Cc1nnc(C(=O)NC(C)(C)c2nc(C(=O)NCc3ccc(F)cc3)c(O)c(=O)n2C)o1 [Raltegravir (MK-0518)] | 181.8% |
| O=C(O)c1cc(-c2ccccc2)nc2ccccc12 [Cinchophen] | 89.39% |

| SMILES | Relative cell viability (%) |
| --- | --- |
| Cc1cccc(CN2CCN(C(c3ccccc3)c3ccc(Cl)cc3)CC2)c1 (centres unmarked) [Meclizine 2HCl] | 130.4% |
| C[C@]12CCC3=C4CCC(=O)C=C4CC[C@H]3[C@@H]1CC[C@@]2(O)CC#N [Dienogest] | 96.11% |
| Cc1cnc(NC(=O)C2=C(O)c3ccccc3S(=O)(=O)N2C)s1 [Meloxicam] | 51.27% |
| Cc1cc(/C=C/C#N)cc(C)c1Nc1ccnc(Nc2ccc(C#N)cc2)n1 [Rilpivirine] | 58.55% |
| CC(C)c1nc(N(C)S(C)(=O)=O)nc(-c2ccc(F)cc2)c1/C=C/[C@@H](O)C[C@@H](O)CC(=O)O [Rosuvastatin Calcium] | 120.2% |
| CC(C)(C)C(=O)C(Oc1ccc(Cl)cc1)n1ccnc1 (centres unmarked) [Climbazole] | 83.94% |
| CC(C)(O)c1ccccc1CC[C@@H](SCC1(CC(=O)O)CC1)c1cccc(/C=C/c2ccc3ccc(Cl)cc3n2)c1 [Montelukast Sodium] | 74.85% |
| CS(=O)(=O)c1ccc(C2=C(c3ccccc3)C(=O)OC2)cc1 [Rofecoxib] | 116% |
| COc1ccc([C@@H]2Sc3ccccc3N(CCN(C)C)C(=O)[C@@H]2OC(C)=O)cc1 [Diltiazem HCl] | 67.8% |
| COCCOC(=O)C1=C(C)NC(C)=C(C(=O)OC/C=C/c2ccccc2)C1c1cccc([N+](=O)[O-])c1 (centres unmarked) [Cilnidipine] | 69.63% |
| CCOC(=O)[C@@H](N)Cc1ccc(-c2cc(O[C@H](c3ccc(Cl)cc3-n3ccc(C)n3)C(F)(F)F)nc(N)n2)cc1 [Telotristat Etiprate (LX 1606 Hippurate)] | 86.05% |
| COc1ccccc1OCC(O)CN1CCN(CC(=O)Nc2c(C)cccc2C)CC1 (centres unmarked) [Ranolazine] | 67.8% |
| CNC[C@H](O)c1ccc(O)c(O)c1 [Epinephrine HCl] | 70.87% |
| CN(C)CCC(c1ccc(Cl)cc1)c1ccccn1 (centres unmarked) [Chlorpheniramine Maleate] | 102.1% |
| Clc1ccc(CCC(Cn2ccnc2)Sc2c(Cl)cccc2Cl)cc1 (centres unmarked) [Butoconazole nitrate] | 63.98% |
| CC(C)(Oc1ccc(Cl)cc1)C(=O)O [Clofibric Acid] | 90.303% |
| [H]/N=C(/N)NS(=O)(=O)c1ccc(N)cc1 [Sulfaguanidine] | 70.303% |
| CCC(=O)O[C@]1(C(=O)SCF)[C@H](C)C[C@H]2[C@@H]3C[C@H](F)C4=CC(=O)C=C[C@]4(C)[C@@]3(F)[C@@H](O)C[C@@]21C [Fluticasone propionate] | 173.6% |
| COc1c(N2CCNC(C)C2)c(F)cc2c(=O)c(C(=O)O)cn(C3CC3)c12 (centres unmarked) [Gatifloxacin] | 96.11% |
| Cc1cn([C@H]2O[C@@H](CO)[C@H](O)[C@H]2F)c(=O)[nH]c1=O [Clevudine] | 97.09% |
| CCOC(=O)c1ccc(OC(=O)CCCCCNC(=N)N)cc1 [Gabexate Mesylate] | 124.4% |

— article PMC11672294, “The Antipsychotic Drug Aripiprazole Suppresses Colorectal Cancer by Targeting LAMP2a to Induce RNH1/miR‐99a/mTOR‐Mediated Autophagy and Apoptosis” (Advanced Science, 2024)
